pIC50: −log10 of the molar value.
Tests used:
FLT3 = molecular target: T1, FLT3 (Homo sapiens, UniProt P36888); assay: TR-FRET kinase activity assay, FLT3; assay type: biochemical; settings: ATP at Km, 60 minutes
T1 sequence (P36888 27-993): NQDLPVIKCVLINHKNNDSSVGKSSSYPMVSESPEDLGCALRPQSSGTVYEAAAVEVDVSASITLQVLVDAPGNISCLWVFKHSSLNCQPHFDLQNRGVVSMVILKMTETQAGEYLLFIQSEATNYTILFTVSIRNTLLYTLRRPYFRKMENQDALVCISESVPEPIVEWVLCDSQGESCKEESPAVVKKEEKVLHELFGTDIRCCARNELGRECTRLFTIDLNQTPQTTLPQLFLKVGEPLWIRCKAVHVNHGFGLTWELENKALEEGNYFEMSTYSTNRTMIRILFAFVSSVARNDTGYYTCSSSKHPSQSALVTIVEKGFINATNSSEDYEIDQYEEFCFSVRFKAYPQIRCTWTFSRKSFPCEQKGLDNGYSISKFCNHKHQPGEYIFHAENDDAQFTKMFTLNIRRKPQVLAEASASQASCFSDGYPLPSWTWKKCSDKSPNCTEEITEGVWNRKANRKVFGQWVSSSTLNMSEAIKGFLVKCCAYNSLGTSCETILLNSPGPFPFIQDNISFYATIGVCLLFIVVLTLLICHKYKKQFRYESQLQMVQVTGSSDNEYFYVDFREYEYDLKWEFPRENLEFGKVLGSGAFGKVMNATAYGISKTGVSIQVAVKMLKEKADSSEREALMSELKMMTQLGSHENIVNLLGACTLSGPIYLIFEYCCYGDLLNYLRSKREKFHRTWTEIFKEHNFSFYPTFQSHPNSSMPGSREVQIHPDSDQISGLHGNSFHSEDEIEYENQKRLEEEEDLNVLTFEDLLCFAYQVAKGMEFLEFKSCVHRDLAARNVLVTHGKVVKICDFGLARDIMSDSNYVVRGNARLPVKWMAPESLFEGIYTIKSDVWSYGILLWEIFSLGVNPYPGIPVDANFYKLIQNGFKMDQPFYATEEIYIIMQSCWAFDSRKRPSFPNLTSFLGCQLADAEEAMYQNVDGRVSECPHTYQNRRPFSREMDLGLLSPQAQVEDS
Method in brief: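 Compounds were tested against each kinase with ATP set at its own Km and a labelled tyrosine peptide substrate. Following one hour at room temperature in buffer containing 10 mM MgCl2 and 1 mM DTT, phosphorylated product was detected by Europium antibody TR-FRET after EDTA quench, and IC50 values were calculated.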

TYRO3 = molecular target: T2, TYRO3 (Homo sapiens, UniProt Q06418); assay: TR-FRET kinase activity assay, TYRO3; assay type: biochemical; settings: ATP at Km, 60 minutes
T2 sequence (Q06418 41-890): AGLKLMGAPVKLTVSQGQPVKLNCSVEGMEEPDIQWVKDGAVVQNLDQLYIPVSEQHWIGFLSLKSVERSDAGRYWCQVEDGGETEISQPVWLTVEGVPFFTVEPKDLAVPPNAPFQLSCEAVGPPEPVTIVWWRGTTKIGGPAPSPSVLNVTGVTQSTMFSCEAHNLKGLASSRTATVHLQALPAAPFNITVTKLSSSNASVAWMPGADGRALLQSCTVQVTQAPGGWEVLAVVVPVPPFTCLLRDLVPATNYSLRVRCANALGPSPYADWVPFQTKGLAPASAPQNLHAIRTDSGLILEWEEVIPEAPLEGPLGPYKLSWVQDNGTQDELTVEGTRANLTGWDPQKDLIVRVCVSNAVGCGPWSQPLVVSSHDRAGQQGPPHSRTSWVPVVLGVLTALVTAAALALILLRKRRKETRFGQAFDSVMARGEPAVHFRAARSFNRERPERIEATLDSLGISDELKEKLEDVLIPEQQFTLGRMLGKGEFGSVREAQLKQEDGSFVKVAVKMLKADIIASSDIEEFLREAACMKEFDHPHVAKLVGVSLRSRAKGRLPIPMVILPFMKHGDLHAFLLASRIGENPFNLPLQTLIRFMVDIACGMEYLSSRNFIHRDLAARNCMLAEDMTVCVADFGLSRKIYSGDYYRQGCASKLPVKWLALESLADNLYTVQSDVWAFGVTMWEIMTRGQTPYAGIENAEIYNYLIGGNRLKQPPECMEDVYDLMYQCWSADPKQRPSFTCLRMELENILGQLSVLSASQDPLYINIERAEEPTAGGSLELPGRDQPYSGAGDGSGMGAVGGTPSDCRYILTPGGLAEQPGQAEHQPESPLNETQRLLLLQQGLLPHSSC
Protocol: IC50 values for compound inhibition of AXL, FLT3, MERTK and TYRO3 activity were determined by using a TR-FRET activity assay. A polypeptide substrate with a fluorescent label is phosphorylated on a tyrosine by each enzyme, where the now phosphorylated product is bound by a Europium-labeled antibody specific to that phosphorylation site. The proximity between the antibody and the substrate gives a signal known as TR-FRET. As the enzyme is inhibited by compound, less phosphorylated peptide product is made causing a decrease in overall signal.
Activity assays were performed in a 384-well, small volume, black microplates in an active enzyme volume of 10 μL and final developed volume of 20 μL. Final assay conditions are 50 mM HEPES pH 7.5, 10 mM MgCl2, 1 mM EGTA, 0.01% Brij 35 and 1 mM DTT all at RT. Enzyme, substrate labeled peptide and compound are mixed, and then the reaction is initiated with the addition of ATP at Km concentration for each enzyme. The reaction is allowed to run 60 minutes and then quenched with a 12.5 mM EDTA (ethylenediamine tetraacetic acid) solution. The plate is then developed with the addition of Europium labeled antibody for a final volume of 20 μL and is then incubated for 30 minutes in darkness. Plates are read in a Pherastar plate reader. Data is analyzed in GraphPad PRISM.
The results of these assays are shown in Table 1, below, wherein “No.” designates compound number (FIG. 1); “A” represents a value of ≤100 nM; “B” a value of >100 nM and ≤1 μM; “C” a value of >1 μM and ≤10 μM; “D” a value of >10 μM; “ND” is not determined. The ratio of Mer to FLT3 is calculated as follows: FLT3 IC50/Mer IC50. “+” represents a ratio of >2.0 and <10; “++” represents a ratio of between 10 and 100; and “+++” represents a ratio of >100.

pIC50 (FLT3)	pIC50 (TYRO3)	Structure (SMILES)
6.00 to 7.00	≥ 7.00	COC[C@H](C)Nc1ncc2c(-c3ccnc(N4CCOCC4)c3)cc([C@H]3CC[C@H](O)CC3)n2n1 [Compound 259]
6.00 to 7.00	≥ 7.00	COC[C@H](C)Nc1ncc2c(-c3cn(C)nc3C)cc([C@H]3CC[C@H](O)CC3)n2n1 [Compound 260]
5.00 to 6.00	≥ 7.00	COC[C@H](C)Nc1ncc2c(-c3cnc(C)o3)cc([C@H]3CC[C@H](O)CC3)n2n1 [Compound 261]
≥ 7.00	≥ 7.00	COCCn1cc(-c2cc([C@H]3CC[C@H](O)CC3)n3nc(N[C@@H](C)CC(F)(F)F)ncc23)cn1 [Compound 262]
≥ 7.00	≥ 7.00	CNC(=O)c1ccc(-c2cc([C@H]3CC[C@H](O)CC3)n3nc(N[C@@H](C)CC(F)(F)F)ncc23)cn1 [Compound 263]
5.00 to 6.00	≥ 7.00	COC[C@H](C)Nc1ncc2c(-c3cnn(CC(C)(C)O)c3)cc([C@H]3CC[C@H](O)CC3)n2n1 [Compound 264]
5.00 to 6.00	≥ 7.00	COC[C@H](C)Nc1ncc2c(-c3cnn(C(C)(C)CO)c3)cc([C@H]3CC[C@H](O)CC3)n2n1 [Compound 265]
6.00 to 7.00	≥ 7.00	COC[C@H](C)Nc1ncc2c(-c3cnn(CC4(C#N)CC4)c3)cc([C@H]3CC[C@H](O)CC3)n2n1 [Compound 266]
5.00 to 6.00	≥ 7.00	COC[C@H](C)Nc1ncc2c(-c3cnnc(C)c3)cc([C@H]3CC[C@H](O)CC3)n2n1 [Compound 267]
6.00 to 7.00	≥ 7.00	Cc1cc(-c2cc([C@H]3CC[C@H](O)CC3)n3nc(N[C@@H](C)CC(F)(F)F)ncc23)cnn1 [Compound 268]
≥ 7.00	≥ 7.00	C[C@@H](CC(F)(F)F)Nc1ncc2c(-c3cnn(C4COC4)c3)cc([C@H]3CC[C@H](O)CC3)n2n1 [Compound 269]
≥ 7.00	≥ 7.00	C[C@@H](COC(F)F)Nc1ncc2c(-c3cnn(C4COC4)c3)cc([C@H]3CC[C@H](O)CC3)n2n1 [Compound 270]
≥ 7.00	≥ 7.00	COC[C@H](C)Nc1ncc2c(-c3ccc(N4CCN(C)CC4)nc3)cc([C@H]3CC[C@H](O)CC3)n2n1 [Compound 271]

Reference: patent US11040981B2, “Pyrrolotriazine compounds and methods of inhibiting TAM kinases” (Syros Pharmaceuticals, Inc., priority 2017, dated 2021)
